Drawing on ChEMBL document CHEMBL1800038, “Kabiramides J and K, trisoxazole macrolides from the sponge Pachastrissa nux” (J Nat Prod, 2011), this text covers IC50 and inhibition for eight compounds.

Experiment [1] concerns MCF7. As to the kind of experiment: Cytotoxicity against human MCF7 cells by SRB assay. The format is functional, cell-based. (In SRB staining, fixed cells bind dye roughly in proportion to their protein.)
Experiment [2] relates to Plasmodium falciparum. In words: Antimalarial activity against multidrug-resistance Plasmodium falciparum K1 assessed as growth inhibition at […] by microdilution radioisotope technique. The format is functional, organism-based.
The nature of experiment [3]: Cytotoxicity against human Fibroblasts by SRB assay. The format is cell-based. As to conditions: Fibroblast.
The test system of experiment [4] is Plasmodium falciparum. In words: Antimalarial activity against multidrug-resistance Plasmodium falciparum K1 assessed as growth inhibition by microdilution radioisotope technique. The format is functional, organism-based. On the technique in general: Broth dilution looks for growth in wells or tubes with falling amounts of substance.

Active and inactive are the calls of the source. No cut-off for these calls is given here.

As usually defined, the IC50 is the concentration needed to halve the response being measured. As for `CO[C@H]1C/C=C/c2nc(co2)-c2nc(co2)-c2nc(co2)[C@H](OC)[C@@H](C)[C@@H](O)C[C@@H](C)C[C@H](OC(N)=O)CC(=O)O[C@@H](C[C@H](OC)[C@@H](C)CCC(=O)/C(C)=C/[C@H](C)/C=C/N(C)C=O)[C@@H]1C` [KABIRAMIDE G], the figures for the IC50 in experiment [1] and in experiment [3] were 0.02 µM and 2.37 µM, respectively. In addition, in experiment [2], the inhibition entry is “inactive”.

Turning to `CO[C@H]([C@H](C)/C=C/N(C)C=O)[C@@H](C)C(=O)CC[C@H](C)[C@H](C[C@@H]1OC(=O)C[C@@H](OC(N)=O)C[C@H](C)C[C@H](O)[C@H](C)[C@@H](OC)c2coc(n2)-c2coc(n2)-c2coc(n2)/C=C/C[C@H](OC)[C@H]1C)OC` [KABIRAMIDE C], the IC50 in experiment [1] was 0.47 µM; in experiment [4], 4.79 µM; in experiment [3], 7.59 µM.

As for `CO[C@H]([C@H](C)/C=C/N(C)C=O)[C@@H](C)C(=O)CC[C@H](C)[C@H](C[C@@H]1OC(=O)C[C@@H](O)C[C@H](C)C[C@H](O)[C@H](C)[C@@H](OC)c2coc(n2)-c2coc(n2)-c2coc(n2)/C=C/C[C@H](OC)[C@H]1C)OC` [KABIRAMIDE D], the figures for the IC50 in experiment [1], in experiment [4] and in experiment [3] were 0.02 µM, 1.87 µM and 0.5 µM, respectively.

Turning to `CO[C@@H](C[C@@H]1OC(=O)C[C@@H](OC(N)=O)C[C@H](C)C[C@H](O)[C@H](C)[C@@H](OC)c2coc(n2)-c2coc(n2)-c2coc(n2)/C=C/C[C@H](O)[C@H]1C)[C@@H](C)CCC(=O)/C(C)=C/[C@H](C)/C=C/N(C)C=O` [KABIRAMIDE J], the results for the IC50 in experiment [1] and in experiment [4] were 0.02 µM and 0.31 µM, respectively.

In the case of `CC[C@@]1(O)C(=O)OCc2c1cc1n(c2=O)Cc2cc3ccccc3nc2-1` [CAMPTOTHECIN], the figures for the IC50 in experiment [1] and in experiment [3] were 0.0016 µM and 0.459 µM, respectively.

`CO[C@H]([C@H](C)/C=C/N(C)C=O)[C@@H](C)C(=O)CC[C@H](C)[C@H](C[C@@H]1OC(=O)C[C@@H](OC(N)=O)C[C@H](C)C[C@H](O)[C@H](C)[C@@H](OC)c2coc(n2)-c2coc(n2)-c2coc(n2)/C=C/C[C@H](O)[C@H]1C)OC` [KABIRAMIDE B]: the IC50 in experiment [1] was 0.45 µM; in experiment [4] it was 1.67 µM; in experiment [3] it was 0.95 µM.

As for `CO[C@H]1C/C=C/c2nc(co2)-c2nc(co2)-c2nc(co2)[C@H](OC)[C@@H](C)[C@@H](O)C[C@@H](C)C[C@H](O)CC(=O)O[C@@H](C[C@H](OC)[C@@H](C)CCC(=O)/C(C)=C/[C@H](C)/C=C/N(C)C=O)[C@@H]1C` [KABIRAMIDE K], the IC50 in experiment [1] stood at 0.07 µM; in experiment [4] it was 0.39 µM.

For `C[C@H]1[C@@H](O)O[C@@H]2O[C@@]3(C)CC[C@H]4[C@H](C)CC[C@@H]1[C@@]24OO3` [ARTENIMOL], in experiment [4], the IC50 came to 0.0038 µM.
